From patent US4540702A, “2-Substituted-4-thiazolidones” (Kureha Kagaku Kogyo Kabushiki Kaisha, priority 1979, dated 1985)

How the values were obtained:
Format in all cases: in vivo
[1] = Effect on duodenal peptic ulcer induced by acetic acid (Okabe et al.); conditions: oral 100 mg/kg/day, three times a day for 10 days; for inhibition in vivo at 100 mg/kg/day: Rattus norvegicus, po, 240 h, vs control group, read-out: Rate of curation of peptic ulcer; for Coefficient of peptic ulcer: acetic acid duodenal ulcer rat
Excerpt: The inventors of the present invention, taking into account of these situations, added to the method of evaluation the effect of accelerating the curation of the peptic ulcer by orally administering the present compound and a commercialized anti-peptic medicine, respectively to rats to which duodenal peptic ulcer due to acetic acid (refer to Okabe, 1971) considered to be most closely resembling to human peptic ulcer has been artificially formed.
Following the method of Okabe et al. (refer to Amer. J. Dig. Dis., Vol. 16, 277, 1971), each male rat weighing 240 to 260 g of a group consisting of 15 animals was subjected to laparotomy under ether-anesthesia and a metal circular frame was put on a part of the serosa at the distance of 5 to 7 mm from the duodenal pylorus and 0.06 ml of glacial acetic acid was poured on the circular part of the frame. After 30 seconds, the acetic liquid was removed and the frame was also removed. Each of the present compounds suspended in an aqueous 0.5% CMC solution was orally administered to the rat from after 3 days of the operation three times a day for consecutive 10 days, rats of control group being given the aqueous 0.5% CMC solution. After ending the administration, the rats were sacrificed by ether, their duodenum being removed to be examined under a microscope for autopsy. The longitudinal and horizontal lengths of the thus formed ulcer were determined and the product of the lengths expressed by mm^2 was recorded as the coefficient of peptic ulcer. The rate of curation of peptic ulcer, in this Example is calculated by the same manner as the rate of suppression of peptic ulcer in Example 5.

[2] = Suppressive action on gastric secretion (pyloric ligature); conditions: rat, intraduodenal 200 mg/kg, 4 hours; for Rate of suppression on gastric secretion: vs control
Protocol: Groups of male rats (a group consisted of 10 animals) were subjected to pyloric ligature under etherization after fasting for 24 hours, and each of the compounds to be tested was administered intraduodenally as an emulsion or suspension in an aqueous 0.5% by weight solution of sodium carboxymethylcellulose just after ligation. After 4 hours of the laparotomy, the stomach of each rat was extirpated under etherization, and the amount of gastric juice in the stomach was measured.

[3] = Effect against peptic ulcer formed by ligating the pylorus (Shay et al.); conditions: pylorus-ligated rat, 100 mg/kg intraperitoneal; for inhibition in vivo at 100 mg/kg: Rattus norvegicus, ip, 15 h, vs control group, read-out: Rate of suppression of peptic ulcer; for Coefficient of peptic ulcer: 15 hours
Protocol: Each male rat of a group consisting of 10 animals, weighing 180 to 200 g, after 48 hours' fasting, was subjected to ligature at its pyloric part under the anesthesia by ether following the method of Shay et al. (refer to Gastroenterology, Vol. 5, 43, 1945). Just after the ligature, each of the present compounds suspended in an aqueous physiological saline solution was injected into each rat's abdominal cavity at a dose rate of 100 mg/kg body weight, the control group being injected with an aqueous physiological saline solution. After keeping the rats at a state of fasting without taking water for 15 hours, the rats were sacrificed by ether and their stomachs were removed to examine under a microscope for autopsy. The longitudinal and horizontal lengths of the thus formed peptic ulcer were determined and expressed by the product (mm^2), and the total sum of the products was represented as the coefficient of ulcer.
The rate of suppression of peptic ulcer (%) is expressed by the ratio of the difference between the coefficient of peptic ulcer of control group and the coefficient of peptic ulcer of the treated group to the coefficient of peptic ulcer of control group multiplied by 100.

Row | SMILES | inhibition in vivo at 100 mg/kg/day [1] | Coefficient of peptic ulcer [1] | Amount of gastric juice [2] | Rate of suppression on gastric secretion [2] | inhibition in vivo at 100 mg/kg [3] | Coefficient of peptic ulcer [3]
1 | COc1cccc(C2NC(=O)CS2)c1OC (stereo not drawn) [2-(2,3-dimethoxyphenyl)-4-thiazolidone] | 82.7% | 1.3 mm^2 | 3.7 mL | 44.7% | 82.9% | 8.8 mm^2
2 | COc1ccc(OC)c(C2NC(=O)CS2)c1 (stereo not drawn) [2-(2,5-dimethoxyphenyl)-4-thiazolidone] | 65.3% | 2.6 mm^2 | 3.5 mL | 32.8% | 79% | 9.4 mm^2
3 | O=C1CSC(c2ccccc2C(=O)O)N1 (stereo not drawn) [2-(2-carboxyphenyl)-4-thiazolidone] | 60% | 3.0 mm^2 | – | – | 79.8% | 8.5 mm^2
4 | CCOc1ccccc1C1NC(=O)CS1 (stereo not drawn) [2-(2-ethoxyphenyl)-4-thiazolidone] | 76% | 1.8 mm^2 | 4.3 mL | 35.8% | 81.9% | 7.6 mm^2
5 | COc1ccccc1C1NC(=O)CS1 (stereo not drawn) [2-(2-methoxyphenyl)-4-thiazolidone] | 80% | 1.5 mm^2 | 4.0 mL | 40.2% | 87.4% | 5.3 mm^2
6 | COc1cc(C2NC(=O)CS2)cc(OC)c1OC (stereo not drawn) [2-(3,4,5-trimethoxyphenyl)-4-thiazolidone] | 82.1% | 1.4 mm^2 | – | – | 85.8% | 6.5 mm^2
7 | COc1ccc(C2NC(=O)CS2)cc1OC (stereo not drawn) [2-(3,4-dimethoxyphenyl)-4-thiazolidone] | 80% | 1.5 mm^2 | 3.3 mL | 50.7% | 91.9% | 3.4 mm^2
8 | COc1cc(C2NC(=O)CS2)cc(OC)c1O (stereo not drawn) [2-(3,5-dimethoxy-4-hydroxyphenyl)-4-thiazolidone] | 88% | 2.4 mm^2 | – | – | 81.9% | 7.6 mm^2
9 | COc1cccc(C2NC(=O)CS2)c1 (stereo not drawn) [2-(3-methoxyphenyl)-4-thiazolidone] | 73.3% | 2.0 mm^2 | – | – | 86% | 5.5 mm^2
10 | CN(C)c1ccc(C2NC(=O)CS2)cc1 (stereo not drawn) [2-(4-dimethylaminophenyl)-4-thiazolidone] | 88% | 2.4 mm^2 | – | – | 75% | 10.5 mm^2
11 | COc1ccc(C2NC(=O)CS2)cc1 (stereo not drawn) [2-(4-methoxyphenyl)-4-thiazolidone] | 58.7% | 3.1 mm^2 | – | – | 68.1% | 13.4 mm^2
12 | CC(C)=CCCC(C)=CCCC(C)=CCCC(=O)OCC=C(C)CCC=C(C)C [Gefarnate, 3,7dimethyl-2,6-octadienyl 5,9,13trimethyl-4,8,12-tetradecatrienoate, reference compound] | 23% | 5.8 mm^2 | 6.5 mL | 2.9% | ~11% | 37.4 mm^2
